Measurements from US20030176501A1 (priority 2000, published 2003).

How the values were obtained:
[1] = design: species or system human; settings: in vivo
[2] = target: T1, HMG-CoA reductase (Homo sapiens, UniProt P04035); settings: in vivo, po
T1 sequence (P04035 1-888): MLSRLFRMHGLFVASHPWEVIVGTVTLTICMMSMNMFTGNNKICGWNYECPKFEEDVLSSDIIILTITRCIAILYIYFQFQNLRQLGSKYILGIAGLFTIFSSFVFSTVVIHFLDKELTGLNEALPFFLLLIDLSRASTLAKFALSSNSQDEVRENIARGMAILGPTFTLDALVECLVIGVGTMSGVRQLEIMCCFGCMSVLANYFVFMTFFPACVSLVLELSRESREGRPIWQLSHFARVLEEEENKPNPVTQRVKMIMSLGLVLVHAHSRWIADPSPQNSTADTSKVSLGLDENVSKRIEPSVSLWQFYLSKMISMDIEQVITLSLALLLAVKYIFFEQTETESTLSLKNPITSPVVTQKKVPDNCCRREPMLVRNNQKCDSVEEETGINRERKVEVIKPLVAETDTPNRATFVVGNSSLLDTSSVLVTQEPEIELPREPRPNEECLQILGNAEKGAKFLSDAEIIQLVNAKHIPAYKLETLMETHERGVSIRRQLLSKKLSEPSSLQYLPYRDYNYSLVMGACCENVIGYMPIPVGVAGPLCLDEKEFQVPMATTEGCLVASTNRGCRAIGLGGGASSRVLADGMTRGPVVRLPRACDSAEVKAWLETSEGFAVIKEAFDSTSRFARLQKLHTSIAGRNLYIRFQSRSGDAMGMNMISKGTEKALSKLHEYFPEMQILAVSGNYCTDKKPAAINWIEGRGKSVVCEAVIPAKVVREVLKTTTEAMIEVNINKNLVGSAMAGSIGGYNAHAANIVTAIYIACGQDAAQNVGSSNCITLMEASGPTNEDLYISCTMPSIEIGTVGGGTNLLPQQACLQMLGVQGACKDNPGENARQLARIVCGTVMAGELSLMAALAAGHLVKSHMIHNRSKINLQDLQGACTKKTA

## CCC(C)(C)C(=O)O[C@H]1C[C@@H](C)C=C2C=C[C@H](C)[C@H](CC[C@@H](O)C[C@@H](O)CC(=O)O)[C@H]21 [SVA, dihydroxy open acid simvastatin]
[1]
  apparent t1/2, effect of itraconazole: essentially unchanged
[1]; male, human, po
  t½, SV in plasma: 6.7 (1.7) hr
[2]
  Cmax, Active Inhibitors: 5.7 ± 3.0 ng eq/mL
